In patent US20220280507A1, “USES OF 5-METHYLTETRAHYDROFOLATE AND ITS COMPOSITION” (Lianyungang Jinkang Hexin Pharmaceutical Co., Ltd., priority 2019, published 2022):
Like-named read-outs stand apart in the source and are kept apart here.

Assays:
[1] = test system: liver injury induced by carbon tetrachloride; settings: serum day 61, n=6
Description: Experiment 3 Protection of 5-Methyltetrahydrofolate Calcium on Liver Injury Induced by Carbon Tetrachloride
30 SPF-grade SD rats were chosen in half female and half male and randomly divided into vehicle control group (vegetable oil), model control group (1.5 ml·kg−1, 20% carbon tetrachloride vegetable oil solvent, intraperitoneal injection every 3 days), 5-methyltetrahydrofolate calcium low-dose group (1mg·Kg−1), 5-methyltetrahydrofolate calcium medium-dose group (2 mg·Kg−1), and 5-methyltetrahydrofolate calcium high-dose group (4 mg·Kg−1) according to their body weight. 20% carbon tetrachloride vegetable oil solvent was used as the inducer, and intraperitoneal injection was performed every 3 days for a total of 60 days. After successful modeling, the administration groups were given a dosage of 5-methyltetrahydrofolate calcium as prescribed above for gavage once a day, and the model group and the normal control group were gavaged once daily with purified water for 60 consecutive days. Blood was taken on the 61st day, and the levels of ALT and AST in serum were detected.

TNF-α = assay: Alcoholic fatty liver model, TNF-α in hippocampus tissue (ELISA); assay type: in vivo, SD rats; settings: liquor model, n=16
Description: According to their weight, they were randomly divided into vehicle control group (purified water, ig), model control group (liquor, 10 ml·Kg−1), positive control group (bicyclol, 50 mg·Kg−1, ig), folic acid calcium salt high-dose group (4 mg·Kg−1), folic acid calcium salt medium-dose group (2 mg·Kg−1), folic acid calcium salt low-dose group (1 mg·Kg−1), in half female and half male, and 16 rats in each group. Purified water was used as a negative control, and bicyclol (place of origin: Beijing Xiehe Pharmaceutical Factory, specification: 25 mg/tablet, batch number: H20040467) was used as a positive control drug. Route of administration: all were administered by oral gavage. Dosage of administration: 1 mg·Kg−1, 2 mg·Kg−1, and 4 mg·Kg−1. Frequency of administration: once a day for 60 consecutive days.
Method of administration: administration started at prescribed doses on the day of modeling for 60 consecutive days and ended at the 60th day. At the same time, rats in each group were weighed every other week during administration period to monitor their body weight changes. On the 61st day, rats were dissected and serum was collected for determination of triglyceride (TG), total cholesterol (TC), malondialdehyde (MDA), superoxide dismutase (SOD) and liver histopathologic examination. The brain tissue of rats was taken out, and hippocampus tissue was separated on ice plate, prepared to homogenate with a mass fraction of 10% with purified water, then the homogenate was centrifuged to obtain supernatant. ELISA was used to detect the levels of inflammatory factors TNF-α and IL-1β in hippocampus tissue with continuous spectrum scanning microplate reader.

mice after drinking = settings: n=10
Description: Experiment 8 Tail Suspension Test and Swimming Test in Mice after Drinking
Clean-grade male Kunming mice, weighing 18-22 g, were chosen. The test was carried out at 23° C. with a humidity of 50%. The mice ate and drank freely, adapting to the environment for 5 days before the test. Then they were divided into 5 groups: model group, normal group, high-dose 5-MTHF-Ca group, medium-dose 5-MTHF-Ca group and low-dose 5-MTHF-Ca group (16 mg·Kg−1, 8mg·Kg−1, 4mg·Kg−1),
10 mice in each group. The model group was given (by gavage) Erguotou (batch number: 201603092, specification: 2L, place of origin: Beijing Shunxin Agriculture Co., Ltd.) at 18 ml·Kg−1, and calcium folate (Lianyungang Jinkang Hexin Pharmaceutical Co., Ltd.). The high-dose, medium-dose and low-dose groups were also given the solution containing Erguotou and calcium folate. The mice were tested after 24 h. The tail suspension test is carried out by fixing the tail of a mouse so that it is suspended head down in a state of desperately struggling to escape but unable to escape. After a period of time, record the immobility time of the mouse in a desperate state in this environment to observe the therapeutic effect after administration. The head of the mouse suspended upside down was 10 cm from the bottom of the box, and two mice were suspended at a time, which were separated by a partition to avoid collision. The mice were suspended for 10 min, and the accumulated immobility time of the suspended mice was counted within the latter 5 min. The results are as follows:
The mice were placed in a plastic swimming box with a length of 50 cm, a width of 40 cm and a height of 40 cm. The time was counted for 10 min after the mice were placed in the water. The accumulated immobility time of the mice with only slight limb movements and no struggling, and remaining afloat was recorded within the latter 5 min.

IL-1β = assay: LPS-induced inflammatory response in astrocytes, IL-1β release (ELISA); assay type: cell-based, Kunming mice; settings: culture supernatant, LPS 1 μg·ml-1 + substance 10 μg·ml-1, 24 h, n=6
Description: Experiment 9 Inhibition of 5-Methyltetrahydrofolate and Curcumin on LPS-Induced Inflammatory Response in Astrocytes
The cerebral cortex of Kunming mice at 1˜2 d was taken out under aseptic conditions, washed 3 times with cold PBS after removing residual meninges and blood vessels, prepared into single cell suspension by blowing, centrifuged, the supernatant was discarded, and the precipitant was resuspended in AST basic medium (high-sugar DMEM containing 10% FBS). The suspension was inoculated into a culture flask coated with poly-L-lysine (0.1 mg/ml), and cultured in a CO2 incubator. After 24 h, tissue debris and non-adherent cells were removed by replacing the medium. Afterwards, the medium was replaced every 3 days until the cells reached 80% confluence, then the flask was placed on a constant temperature rotary shaker, where the suspension was centrifuged at 180 r/min, 37° C. for 18 h to remove oligodendrocytes and microglia from the upper layer. Then trypsin digestion was used for subculture. […]
LPS (1 μg·ml-1), LPS (1 μg·ml-1)+curcumin (10 μg·ml-1), LPS (1 μg·ml-1)+5-MTHF-Ca (10 μg·ml-1); experimental group: LPS (1 μg·ml-1)+curcumin (5 μg·ml-1)+5-MTHF-Ca (5 μg·ml-1). After 24 h, the culture supernatant was collected, and the cytokines IL-6, IL-1β and TNF-α were detected by ELISA.

[2] = 1 mg·kg−1·d−1 gavage 60 d after CCl4 modeling
[3] = 2 mg·kg−1·d−1 gavage 60 d after CCl4 modeling
[4] = 4 mg·kg−1·d−1 gavage 60 d after CCl4 modeling

Substance 5-methyltetrahydrofolate calcium has an ALT [1, 2] of 54.64 ± 20.52 IU/L, an AST [1, 2] of 185.73 ± 63.46 IU/L and an ALT [1, 3] of 50.54 ± 20.12 IU/L. For the same substance, the AST [1, 3] was 156.97 ± 50.35 IU/L, the ALT [1, 4] was 40.84 ± 16.31 IU/L and the AST [1, 4] was 125.87 ± 43.84 IU/L. For the same substance, the “TNF-α in hippocampus tissue” value (TNF-α; 1 mg·kg−1·d−1 ig 60 d) was 250.39 ± 32.40 μg · g^−1 prot, the “TNF-α in hippocampus tissue” value (TNF-α; 2 mg·kg−1·d−1 ig 60 d) was 241.32 ± 29.32 μg · g^−1 prot and the “TNF-α in hippocampus tissue” value (TNF-α; 4 mg·kg−1·d−1 ig 60 d) was 220.43 ± 24.34 μg · g^−1 prot. It also gave a Swimming immobility time (mice after drinking; high dose 16 mg·Kg−1 with Erguotou 18 ml·Kg−1, tested after 24 h) of 104.64 ± 5.24 S, a Swimming immobility time (mice after drinking; low dose 4 mg·Kg−1 with Erguotou 18 ml·Kg−1, tested after 24 h) of 123.56 ± 3.64 S and a Swimming immobility time (mice after drinking; medium dose 8 mg·Kg−1 with Erguotou 18 ml·Kg−1, tested after 24 h) of 110.42 ± 2.64 S. For the same substance, the IL-1β (IL-1β) was 721.45 ± 8.79 pg/mL.
